Data from US4083947A, “Organ visualization” (The Radiochemical Centre Limited, priority 1975, dated 1978).
Where two headings read alike, the source gives them in different places.

Legend:
[1] = cited from earlier work
[2] = cited from earlier work; remark: listed apart in the source
[3] = Tissue distribution of selenium-75-labelled sterols in rats, sixth day post-injection; type: in vivo, rats of the C.F.Y. strain; settings: tail vein, dose: 1, 7: 40 μCi, 6: 50 μCi, 3: 30 μCi, 4: 1.5 μCi, 5: 10 μCi, 8: 6.3 μCi; for % dose kg./g. in Ovaries: female rats; for % dose kg./g. in Adrenals / % dose kg./g. in Blood / % dose kg./g. in Kidneys / % dose kg./g. in Liver / % dose kg./g. in Muscle: male and female rats; for % dose kg./g. in Testes: male rats; for Concentration Ratio; Adrenals: Kidneys / Concentration Ratio; Adrenals: Liver / Concentration Ratio; Adrenals: Muscle / Concentration Ratio; Adrenals: Ovaries / Concentration Ratio; Adrenals: Testes / Concentration Ratio; Adrenals: Blood: rats; for Concentration Ratio; Adrenals: Blood: 8640 min
Description: The tissue distribution and target to non-target concentration ratios for seven compounds were studied in male and female rats (150-180 g) of the C.F.Y. strain. Each compound (in a volume of 0.3ml) was injected via the tail vein into two male and two female rats. The animals were then housed in separate metabolism cages prior to sacrifice and dissecting on the sixth day post-injection.

[4] = Tissue distribution in a female dog, 6th day post-injection; type: in vivo
Description: 250μCi of 6β-methylselenomethyl-19-norcholest-5(10)-en-[…]-^75 Se was intravenously injected into a female dog (13.7 kg). The dog was housed in a metabolism cage for the daily collection of urine and faeces. On the 6th day post-injection the animal was sacrificed (i.v. sodium pento-barbitone)and tissue and organ samples collected. The weighed samples were then assayed for radioactive content.
The resulting tissue distribution (expressed in terms of % dose kg/g) is tabulated below: […]

[5] = Adrenal uptake of 75Se in patients with Cushing Syndrome (gamma camera scans); type: in vivo, humans
Description: (§1) Two patients with Cushing Syndrome were injected intravenously with 500μCi of 6β-methylselenomethyl-19-norcholest-5(10)-en-3β-ol-^75 Se formulated in normal saline stabilized with polysorbate. Repeated gamma camera scans and whole body-, urine- and blood measurements were made during a period of two weeks post injection. In one patient a maximum uptake of 17μCi in the left adrenal region was measured, the removed adrenal cortex adenoma, weight 66 g, containing 15μCi of ^75 Se.

[6] = Adrenal scanning/visualization in patients, comparison of 75Se compound with 19-iodocholesterol-131I; type: in vivo, humans; settings: for time after injection at which scans could be taken: p.i.; for dose giving equally good adrenal scans: per kg body weight, adrenal cortex adenomas or hyperplasia
Description: as §1
Furthermore, the ^75 Se compound allowed scans to be taken at an earlier point of time after injection than was the case with 19-iodocholesterol-^131 I (2-3 days in contrast to 6-10 days p.i.).

[7] = cited from earlier work; remark: listed apart in the source
[8] = compared with 19-iodocholesterol-131I; cited from earlier work
[9] = 250μCi intravenous, female dog, 6th day
[10] = 250μCi intravenous, female dog, daily collection to 6th day

## C[75Se]C[C@]12CC[C@H](O)CC1=CC[C@@H]1[C@@H]2CC[C@]2(C)[C@@H]([C@H](C)CCCC(C)C)CC[C@@H]12 [19-methylselenocholesterol]
[1]
  concentration in / uptake into human adrenal glands: poor
[1]; human
  concentration in the adrenal cortex: appears not to be concentrated in the adrenal cortex
[1]; some instances
  uptake into pheochromocytomas of human adrenal medullary tissue: some instances have been cited of its uptake into pheochromocytomas
[2]
  concentration in rat adrenal tissue: concentrated strongly in rat adrenal tissue

## CC(C)CCC[C@@H](C)[C@H]1CC[C@H]2[C@@H]3C[C@@H](C[75Se]c4ccccc4)C4=C(CC[C@H](O)C4)[C@H]3CC[C@]12C [Example 8, 6β-phenylselenomethyl-19-norcholest-5(10)-en-3β-ol-^75 Se]
[3]
  % dose kg./g. in Ovaries: 2.578 % dose kg./g.
  % dose kg./g. in Adrenals: 5.934 % dose kg./g.
  % dose kg./g. in Blood: 0.021 % dose kg./g.
  % dose kg./g. in Kidneys: 0.062 % dose kg./g.
  % dose kg./g. in Liver: 0.144 % dose kg./g.
  % dose kg./g. in Muscle: 0.015 % dose kg./g.
  % dose kg./g. in Testes: 0.039 % dose kg./g.
  Concentration Ratio; Adrenals: Kidneys: 109.1
  Concentration Ratio; Adrenals: Liver: 40.0
  Concentration Ratio; Adrenals: Muscle: 418.9
  Concentration Ratio; Adrenals: Ovaries: 3.62
  Concentration Ratio; Adrenals: Testes: 171.2
  Concentration Ratio; Adrenals: Blood: 285.8

## C[75Se]C[C@@H]1C[C@@H]2[C@H](CC[C@]3(C)[C@@H]([C@H](C)CCCC(C)C)CC[C@@H]23)C2=C1C[C@@H](O)CC2 [Example 1, 6β-methylselenomethyl-19-norcholest-5(10)-en-3β-ol-^75 Se]
[4]; [9]
  % dose kg/g, Adrenals: 7.240 % dose kg/g
  % dose kg/g, Bile: 0.485 % dose kg/g
  % dose kg/g, Blood: 0.066 % dose kg/g
  % dose kg/g, Kidneys: 0.175 % dose kg/g
  % dose kg/g, Liver: 0.143 % dose kg/g
  % dose kg/g, Lungs: 0.164 % dose kg/g
  % dose kg/g, Muscle: 0.042 % dose kg/g
  % dose kg/g, Ovaries: 1.571 % dose kg/g
  % dose kg/g, Spleen: 0.083 % dose kg/g
  % dose kg/g, adrenal cortex: 9.925 % dose kg/g
  % of dose, Adrenals: 0.622 % of dose
  % of dose, Blood: 5.989 % of dose
  % of dose, Kidneys: 0.712 % of dose
  % of dose, Liver: 3.894 % of dose
  % of dose, Lungs: 1.136 % of dose
  % of dose, Ovaries: 0.303 % of dose
  % of dose, Spleen: 0.528 % of dose
[4]; [10]
  % of dose, Total Faeces: 27.691 % of dose
  % of dose, Total Urine: 1.953 % of dose
[4]; dogs
  concentration in the adrenal cortex: concentrates in the adrenal cortex
[5]; compared with 19-iodocholesterol-131I in five other adrenal cortex adenomas
  75Se uptake per gram of tissue in the adrenal adenoma: higher than that of 19-iodocholesterol-^131 I
[5]; humans
  concentration in the adrenal glands: concentrate in the adrenal glands of humans
[5]; one patient with Cushing Syndrome, 500μCi intravenous, two weeks of scans
  maximum uptake in the left adrenal region: 17 μCi
[5]; other patient with Cushing Syndrome, 500μCi intravenous
  75Se uptake in each of both adrenal regions: 3 μCi
[5]; same patient, adenoma weight 66 g, 500μCi intravenous
  75Se contained in removed adrenal cortex adenoma: 15 μCi
[3]
  % dose kg./g. in Ovaries: 2.356 % dose kg./g.
  % dose kg./g. in Adrenals: 9.885 % dose kg./g.
  % dose kg./g. in Blood: 0.024 % dose kg./g.
  % dose kg./g. in Kidneys: 0.116 % dose kg./g.
  % dose kg./g. in Liver: 0.054 % dose kg./g.
  % dose kg./g. in Muscle: 0.023 % dose kg./g.
  % dose kg./g. in Testes: 0.044 % dose kg./g.
  Concentration Ratio; Adrenals: Kidneys: 91.9
  Concentration Ratio; Adrenals: Liver: 163.9
  Concentration Ratio; Adrenals: Muscle: 436.7
  Concentration Ratio; Adrenals: Ovaries: 4.5
  Concentration Ratio; Adrenals: Testes: 211.9
  Concentration Ratio; Adrenals: Blood: 433.1
[6]; comparable cases with adrenal cortex adenomas or hyperplasia, smaller dose
  quality of adrenal scans compared with 19-iodocholesterol-131I: equally good adrenal scans
[6]; humans
  visualization of adrenal glands and detection of adrenal cortex adenomas: enabling their visualization and the detection of adrenal cortex adenomas
[6]
  time after injection at which scans could be taken: 2 to 3 days
  dose giving equally good adrenal scans: 7 μCi/kg

## CC(C)CCC[C@@H](C)[C@H]1CC[C@H]2[C@@H]3CC=C4C[C@@H](O)CC[C@]4(C[131I])[C@H]3CC[C@]12C [19-iodocholesterol-^131 I]
[1]
  concentration in / uptake into human adrenal glands: concentrate in the adrenal glands
[7]
  concentration in adrenal glands of dogs: concentrate in the adrenal glands
[6]
  time after injection at which scans could be taken: 6 to 10 days
  dose giving equally good adrenal scans: 10-20 μCi/kg
[2]
  concentration in rat adrenal tissue: concentrate in the adrenal glands

## CC(C)CCC[C@@H](C)[C@H]1CC[C@H]2[C@@H]3C[C@@H](C[75Se](C)=O)C4=C(CC[C@H](O)C4)[C@H]3CC[C@]12C (stereo partly drawn) [Example 7, 6β-methylselenomethyl-19-norcholest-5(10)-en-3β-olselenoxide-^75 Se]
[3]
  % dose kg./g. in Ovaries: 0.817 % dose kg./g.
  % dose kg./g. in Adrenals: 4.284 % dose kg./g.
  % dose kg./g. in Blood: 0.022 % dose kg./g.
  % dose kg./g. in Kidneys: 0.087 % dose kg./g.
  % dose kg./g. in Liver: 0.091 % dose kg./g.
  % dose kg./g. in Muscle: 0.016 % dose kg./g.
  % dose kg./g. in Testes: 0.046 % dose kg./g.
  Concentration Ratio; Adrenals: Kidneys: 49.5
  Concentration Ratio; Adrenals: Liver: 48.3
  Concentration Ratio; Adrenals: Muscle: 274
  Concentration Ratio; Adrenals: Ovaries: 5.1
  Concentration Ratio; Adrenals: Testes: 95.2
  Concentration Ratio; Adrenals: Blood: 202

## CC(C)CCC[C@@H](C)[C@H]1CC[C@H]2[C@@H]3C[C@@H](C[131I])C4=C(CC[C@H](O)C4)[C@H]3CC[C@]12C [^131 I-iodinated rearranged product, 6β-iodomethyl-19-norcholest-5(10)-en-3β-ol]
[8]
  effectiveness as adrenal scanning agent: far more effective adrenal scanning agent than 19-iodocholesterol-^131 I
